Source: ChEMBL document CHEMBL2440027, “Further SAR studies on bicyclic basic merbarone analogues as potent antiproliferative agents” (Bioorg Med Chem, 2013)

What was measured:
Format in all cases: functional
[1] = Growth inhibition of human Hs 578T cells after 48 hrs by sulforhodamine B assay; details: for CC50: read-out: LC50 (the source's name)
[2] = tested on: SR; assay: Growth inhibition of human SR cells assessed as cell growth at 10 uM after 48 hrs by sulforhodamine B assay relative to control; details: read-out: Activity
[3] = tested on: UO-31; assay: Growth inhibition of human UO31 cells after 48 hrs by sulforhodamine B assay; details: UO-31, 48 h
[4] = tested on: RPMI-8226; assay: Growth inhibition of human RPMI8226 cells after 48 hrs by sulforhodamine B assay; details: RPMI-8226, 48 h; for CC50: read-out: LC50 (the source's name)
[5] = tested on: SK-OV-3; assay: Growth inhibition of human SKOV3 cells after 48 hrs by sulforhodamine B assay; details: SK-OV-3, 48 h; for CC50: read-out: LC50 (the source's name)
[6] = tested on: T47D; assay: Growth inhibition of human T47D cells after 48 hrs by sulforhodamine B assay
[7] = tested on: 786-0; assay: Growth inhibition of human 786-0 cells after 48 hrs by sulforhodamine B assay; details: 786-0, 48 h
[8] = tested on: NCI-H226; assay: Growth inhibition of human NCI-H226 cells after 48 hrs by sulforhodamine B assay; details: NCI-H226, 48 h
[9] = tested on: ACHN; assay: Growth inhibition of human ACHN cells after 48 hrs by sulforhodamine B assay
[10] = tested on: UACC-257; assay: Growth inhibition of human UACC257 cells assessed as cell growth at 10 uM after 48 hrs by sulforhodamine B assay relative to control; details: UACC-257, 48 h, read-out: Activity
[11] = tested on: SNB-75; assay: Growth inhibition of human SNB75 cells after 48 hrs by sulforhodamine B assay; details: SNB-75, 48 h
[12] = tested on: CAKI-1; assay: Growth inhibition of human CAKI-1 cells after 48 hrs by sulforhodamine B assay; details: CAKI-1, 48 h
[13] = tested on: HT-29; assay: Growth inhibition of human HT-29 cells after 48 hrs by sulforhodamine B assay; details: HT-29, 48 h; for CC50: read-out: LC50 (the source's name)
[14] = tested on: MDA-MB-468; assay: Growth inhibition of human MDA-MB-468 cells assessed as cell growth at 10 uM after 48 hrs by sulforhodamine B assay relative to control; details: MDA-MB-468, 48 h, read-out: Activity
[15] = tested on: Malme-3M; assay: Growth inhibition of human MALME-3M cells assessed as cell growth at 10 uM after 48 hrs by sulforhodamine B assay relative to control; details: read-out: Activity
[16] = tested on: HOP-62; assay: Growth inhibition of human HOP62 cells assessed as cell growth at 10 uM after 48 hrs by sulforhodamine B assay relative to control; details: HOP-62, 48 h, read-out: Activity
[17] = tested on: LOX IMVI; assay: Growth inhibition of human LOXIMVI cells after 48 hrs by sulforhodamine B assay
[18] = Growth inhibition of human HCC2998 cells assessed as cell growth at 10 uM after 48 hrs by sulforhodamine B assay relative to control; details: HCC 2998, 48 h, read-out: Activity
[19] = tested on: U-251; assay: Growth inhibition of human U251 cells after 48 hrs by sulforhodamine B assay; details: U-251, 48 h; for CC50: read-out: LC50 (the source's name)
[20] = tested on: M14; assay: Growth inhibition of human M14 cells assessed as cell growth at 10 uM after 48 hrs by sulforhodamine B assay relative to control; details: M14, 48 h, read-out: Activity
[21] = tested on: NCI-H226; assay: Growth inhibition of human NCI-H226 cells assessed as cell growth at 10 uM after 48 hrs by sulforhodamine B assay relative to control; details: NCI-H226, 48 h, read-out: Activity
[22] = tested on: NCI-H23; assay: Growth inhibition of human NCI-H23 cells after 48 hrs by sulforhodamine B assay; details: NCI-H23, 48 h
[23] = tested on: MDA-MB-435; assay: Growth inhibition of human MDA-MB-435 cells after 48 hrs by sulforhodamine B assay; details: MDA-MB-435, 48 h; for CC50: read-out: LC50 (the source's name)
[24] = tested on: A498; assay: Growth inhibition of human A498 cells assessed as cell growth at 10 uM after 48 hrs by sulforhodamine B assay relative to control; details: A498, 48 h, read-out: Activity
[25] = tested on: OVCAR-3; assay: Growth inhibition of human OVCAR3 cells after 48 hrs by sulforhodamine B assay; details: OVCAR-3, 48 h
[26] = tested on: OVCAR-5; assay: Growth inhibition of human OVCAR5 cells after 48 hrs by sulforhodamine B assay; details: OVCAR-5, 48 h; for CC50: read-out: LC50 (the source's name)
[27] = tested on: A549; assay: Growth inhibition of human A549/ATCC cells after 48 hrs by sulforhodamine B assay; details: A549, 48 h
[28] = tested on: SW-620; assay: Growth inhibition of human SW620 cells after 48 hrs by sulforhodamine B assay; details: SW-620, 48 h
[29] = tested on: ACHN; assay: Growth inhibition of human ACHN cells assessed as cell growth at 10 uM after 48 hrs by sulforhodamine B assay relative to control; details: read-out: Activity
[30] = tested on: COLO 205; assay: Growth inhibition of human COLO205 cells assessed as cell growth at 10 uM after 48 hrs by sulforhodamine B assay relative to control; details: COLO 205, 48 h, read-out: Activity
[31] = tested on: SN12C; assay: Growth inhibition of human SN12C cells assessed as cell growth at 10 uM after 48 hrs by sulforhodamine B assay relative to control; details: read-out: Activity
[32] = tested on: SN12C; assay: Growth inhibition of human SN12C cells after 48 hrs by sulforhodamine B assay; details: for CC50: read-out: LC50 (the source's name)
[33] = tested on: CCRF-CEM; assay: Growth inhibition of human CCRF-CEM cells assessed as cell growth at 10 uM after 48 hrs by sulforhodamine B assay relative to control; details: read-out: Activity
[34] = tested on: HCT-15; assay: Growth inhibition of human HCT15 cells after 48 hrs by sulforhodamine B assay; details: HCT-15, 48 h

## CN(C)CCNc1nc2c(c(=N)n1-c1ccccc1)c(=S)n(-c1ccccc1)c(=S)n2-c1ccccc1
[1]
  GI50: 2.3 µM
  TGI: 7.7 µM
  CC50: 40 µM
[2]
  growth at 10 µM: 34.7%
[3]
  GI50: 1.6 µM
  LC50: 9.6 µM
  TGI: 3.9 µM
[4]
  GI50: 0.4 µM
  TGI: 2.2 µM
  CC50: 7.3 µM
[5]
  GI50: 10.3 µM
  TGI: 24.1 µM
  CC50: 56.7 µM
[6]
  GI50: 2.1 µM
  LC50: 30.5 µM
  TGI: 5.4 µM
[7]
  GI50: 1.4 µM
  LC50: 21.4 µM
  TGI: 4.3 µM
[8]
  GI50: 11.6 µM
  LC50: 59.5 µM
  TGI: 26.3 µM
[9]
  GI50: 3.2 µM
  LC50: 34.1 µM
  TGI: 11.3 µM
[10]
  growth at 10 µM: -74.6%
[11]
  GI50: 2.4 µM
  LC50: 31.9 µM
  TGI: 7.5 µM
[12]
  GI50: 3.6 µM
  LC50: 72 µM
  TGI: 17.6 µM
[13]
  GI50: 1.4 µM
  TGI: 3.4 µM
  CC50: 8.3 µM
[14]
  growth at 10 µM: -34.6%
[15]
  growth at 10 µM: -89.5%
[16]
  growth at 10 µM: 6.19%
[17]
  GI50: 1.4 µM
  LC50 (concentration killing 50% of cells): 5.3 µM
  TGI: 2.7 µM
[18]
  growth at 10 µM: -39.6%
[19]
  GI50: 1.5 µM
  TGI: 3.4 µM
  CC50: 7.8 µM
[20]
  growth at 10 µM: -84.4%
[21]
  growth at 10 µM: 82.3%
[22]
  GI50: 16.8 µM
  TGI: 42.1 µM
[23]
  GI50: 1.9 µM
  TGI: 4.7 µM
  CC50: 22.1 µM
[24]
  growth at 10 µM: 40.3%
[25]
  GI50: 3 µM
  LC50: 45.4 µM
  TGI: 12.5 µM
[26]
  GI50: 12.1 µM
  TGI: 29.5 µM
  CC50: 72.1 µM
[27]
  GI50: 4.1 µM
  LC50: 70.4 µM
  TGI: 18.6 µM
[28]
  GI50: 2.1 µM
  LC50: 18.8 µM
  TGI: 5.1 µM
[29]
  growth at 10 µM: 28.3%
[30]
  growth at 10 µM: 6.65%
[31]
  growth at 10 µM: 52.3%
[32]
  GI50: 6.2 µM
  TGI: 19.9 µM
  CC50: 48 µM
[33]
  growth at 10 µM: -8.26%
[34]
  GI50: 1.4 µM
  LC50: 17.7 µM
  TGI: 4.5 µM

## CCCCN(CCCC)CCCNc1nc2c(c(=N)n1-c1ccccc1)c(=S)n(-c1ccccc1)c(=S)n2-c1ccccc1
[1]
  GI50: 0.5 µM
  TGI: 1.9 µM
  CC50: 5.5 µM
[2]
  growth at 10 µM: -65.2%
[3]
  GI50: 0.2 µM
  LC50: 1.1 µM
  TGI: 0.5 µM
[4]
  GI50: 0.2 µM
  TGI: 0.3 µM
  CC50: 0.7 µM
[5]
  GI50: 1.5 µM
  TGI: 2.9 µM
  CC50: 5.8 µM
[6]
  GI50: 0.2 µM
  LC50: 8.3 µM
  TGI: 0.5 µM
[7]
  GI50: 0.2 µM
  LC50: 0.8 µM
  TGI: 0.4 µM
[8]
  GI50: 1.4 µM
  LC50: 5.5 µM
  TGI: 2.8 µM
[9]
  GI50: 0.5 µM
  LC50: 4.1 µM
  TGI: 1.6 µM
[10]
  growth at 10 µM: -73.1%
[11]
  GI50: 0.4 µM
  LC50: 4.1 µM
  TGI: 1.6 µM
[12]
  GI50: 0.1 µM
  LC50: 3.1 µM
  TGI: 0.8 µM
[13]
  GI50: 0.2 µM
  TGI: 0.5 µM
  CC50: 1.8 µM
[14]
  growth at 10 µM: -89.9%
[15]
  growth at 10 µM: -91.5%
[16]
  growth at 10 µM: -99.5%
[17]
  GI50: 0.2 µM
  LC50 (concentration killing 50% of cells): 0.6 µM
  TGI: 0.3 µM
[18]
  growth at 10 µM: -91.5%
[19]
  GI50: 0.3 µM
  TGI: 1.2 µM
  CC50: 3.5 µM
[20]
  growth at 10 µM: -86.3%
[21]
  growth at 10 µM: -82.5%
[22]
  GI50: 1.6 µM
  LC50 (concentration killing 50% of cells): 8.4 µM
  TGI: 3.4 µM
[23]
  GI50: 0.2 µM
  TGI: 0.5 µM
  CC50: 1.5 µM
[24]
  growth at 10 µM: -100%
[25]
  GI50: 0.8 µM
  LC50: 4.6 µM
  TGI: 2.1 µM
[26]
  GI50: 1.4 µM
  TGI: 2.8 µM
  CC50: 5.5 µM
[27]
  GI50: 0.7 µM
  LC50: 8.3 µM
  TGI: 2.4 µM
[28]
  GI50: 0.4 µM
  LC50: 3.7 µM
  TGI: 1.4 µM
[29]
  growth at 10 µM: -95.8%
[30]
  growth at 10 µM: -74.1%
[31]
  growth at 10 µM: -99.2%
[32]
  GI50: 1.2 µM
  TGI: 2.4 µM
  CC50: 4.9 µM
[33]
  growth at 10 µM: -78.4%
[34]
  GI50: 0.3 µM
  LC50: 3.4 µM
  TGI: 1.1 µM
